Patent US20150072968A1, “Treating Infections with Ceftolozane/Tazobactam in Subjects Having Impaired Renal Function” (Calixa Therapeutics, Inc., priority 2013, published 2015)

What was measured:
P. aeruginosa = test: Baseline susceptibility testing of cUTI isolates, CLSI broth microdilution; assay type: cell-based, Pseudomonas aeruginosa; conditions: comparators
Experimental: (§1) 764 isolates of Gram-negative aerobic organisms were isolated from 800 patients in the microbiological modified intent-to-treat population (enrolled in 20 countries in Eastern Europe, North America, South America and 5 countries outside of these regions). Susceptibility (S) testing was performed with ceftolozane/tazobactam at a fixed 4 μg/mL of tazobactam and 10 antibiotic comparators using CLSI broth microdilution methods. ESBL enzymes were identified by PCR.

[1] = test system: Klebsiella pneumoniae (KPN); test: as above; assay type: cell-based
Experimental: as §1

SMILES: NCC[C@H](O)C(=O)N[C@@H]1C[C@H](N)[C@@H](O[C@H]2O[C@H](CN)[C@@H](O)[C@H](O)[C@H]2O)[C@H](O)[C@H]1O[C@H]1O[C@H](CO)[C@@H](O)[C@H](N)[C@H]1O [amikacin]
- susceptibility of isolates (P. aeruginosa): 55.0%

SMILES: CO/N=C(\C(=O)N[C@@H]1C(=O)N2C(C(=O)[O-])=C(C[N+]3(C)CCCC3)CS[C@H]12)c1csc(N)n1 [cefepime]
- susceptibility of isolates (P. aeruginosa): 50.0%

SMILES: CC(C)(O/N=C(\C(=O)N[C@@H]1C(=O)N2C(C(=O)[O-])=C(C[n+]3ccccc3)CS[C@H]12)c1csc(N)n1)C(=O)O [ceftazidime]
- susceptibility of isolates (P. aeruginosa): 40.0%
- isolates inhibited at ≦8 μg/mL [1]: 58.2%

SMILES: C[C@@H](O)[C@H]1C(=O)N2C(C(=O)O)=C(SCCN=CN)C[C@H]12 [imipenem]
- susceptibility of isolates (P. aeruginosa): 45.0%
